Columns and labels:
Type in all cases: biochemical
Human PKK = biological target: T1, Human PKK (Homo sapiens, UniProt P03952); experiment: Inhibition of PKK using an endpoint assay (human PKK); conditions: fluorogenic substrate H-Pro-Phe-Arg-AMC, 1 h room temperature, method names human or rat PKK, table does not say which
T1 construct: purchased Enzyme Research Laboratories
Summary of the method: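 Human PKK inhibition measured in 100 mM Tris, 150 mM NaCl, pH 7.8, 0.1% BSA, 0.05% Tween20, 1% DMSO. Endpoint format: reaction stopped with PPACK II at 1 μM final, fluorescence read at 355 nm excitation/460 nm emission.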

human TK1 = biological target: T2, human TK1 (Homo sapiens, UniProt P06870); experiment: Inhibition of TK1 (Ki); conditions: activated human TK1, substrate H-Pro-Phe-Arg-AMC, 24° C.
T2 construct: purchased R&D Systems
Protocol: The ability of compounds of formula (I) to inhibit plasma kallikrein (PKK), Factor XIIa (FXIIa), Factor XIa (FXIa), Factor Xa (FXa), Factor IIa (alpha-thrombin; FIIa), plasmin, trypsin, tissue kallikrein 1 (TK1), Factor VIIa (FVIIa), or FVIIa complexed with Tissue Factor, phospholipids and CaCl2 (FVIIa/TF/PL/CaCl2) is determined using the following biochemical assays in assay buffer (100 mM Tris, 150 mM NaCL, adjusted to a pH of 7.8 with HCl, and containing 0.1% (w/v) BSA and 0.05% (v/v) Tween20) in the presence of 1% (v/v) DMSO:
Prior to the assay, human TK1 (R&D Systems) is activated by incubation with human trypsin (Calbiochem) in a 1:10,000 ratio for 15 min at 37° C. For assaying TK1 inhibitory activity, activated TK1 (31.25 nM or 1 U/mL) is incubated at 24° C. with 0.1 mM fluorogenic substrate H-Pro-Phe-Arg-AMC (11295 from Bachem) and various concentrations of the test compound in assay buffer. Measurements are performed in a kinetic interval every 2nd minute for 16 min using a Spectramax M5 (Molecular Devices) with the following settings of the wavelength excitation of 350 nm and wavelength emission of 450 nm.
The pIC50 values are then fitted using a four-parametric fitting procedure using GraphPad Prism (version 6; GraphPad Software, Inc.). Respective Ki values are obtained by correction of the IC50 values for the respective KM value of the used substrate (see Table A for the obtained KM values of the used substrates) using the following formula:
[formula] Where the IC50 is in molar and the KM value in mM.

[1] = biological target: T3, PKK in kaolin activated human platelet poor plasma (Homo sapiens, UniProt P03952); experiment: Inhibition of PKK in kaolin activated human PPP; conditions: 25-750 μg/mL kaolin, global fit, text b200 calls the values IC90;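 further: readout is the rate of fluorogenic substrate cleavage in rfu per min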
T3 construct: Platelet poor plasma (PPP) obtained from human wholeblood; from tissue
Protocol: Platelet poor plasma (PPP) obtained from human wholeblood, anticoagulated with Na-Citrate, is incubated with various concentrations of the test compound together with either 25, 75, 250, or 750 μg/mL kaolin in assay buffer for 20 min at 37° C. such that for each kaolin dose used a concentration response is obtained for the test compound.

T1 sequence (P03952 20-390 limits assumed): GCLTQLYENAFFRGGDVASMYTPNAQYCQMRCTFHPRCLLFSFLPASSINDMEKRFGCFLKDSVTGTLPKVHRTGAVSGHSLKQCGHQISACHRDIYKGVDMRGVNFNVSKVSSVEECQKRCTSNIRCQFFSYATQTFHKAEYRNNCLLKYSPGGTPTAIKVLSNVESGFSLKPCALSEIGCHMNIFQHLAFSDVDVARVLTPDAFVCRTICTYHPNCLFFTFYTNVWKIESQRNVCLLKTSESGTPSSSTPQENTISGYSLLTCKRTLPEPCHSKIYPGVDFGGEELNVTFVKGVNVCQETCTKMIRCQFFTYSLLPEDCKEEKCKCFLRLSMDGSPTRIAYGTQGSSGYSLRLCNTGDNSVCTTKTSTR
T1 sequence (P03952 391-638 limits assumed): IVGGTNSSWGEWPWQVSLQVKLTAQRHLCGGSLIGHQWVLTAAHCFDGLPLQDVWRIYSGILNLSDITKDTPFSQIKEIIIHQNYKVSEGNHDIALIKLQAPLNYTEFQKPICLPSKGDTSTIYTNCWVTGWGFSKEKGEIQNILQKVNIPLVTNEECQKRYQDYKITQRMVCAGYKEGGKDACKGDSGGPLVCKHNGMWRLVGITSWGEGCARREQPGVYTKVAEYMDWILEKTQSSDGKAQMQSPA
T3 sequence (P03952 391-638 limits assumed): as above
T3 sequence (P03952 20-390 limits assumed): as the sequence (P03952 20-390 limits assumed) above
T2 sequence (P06870 25-262): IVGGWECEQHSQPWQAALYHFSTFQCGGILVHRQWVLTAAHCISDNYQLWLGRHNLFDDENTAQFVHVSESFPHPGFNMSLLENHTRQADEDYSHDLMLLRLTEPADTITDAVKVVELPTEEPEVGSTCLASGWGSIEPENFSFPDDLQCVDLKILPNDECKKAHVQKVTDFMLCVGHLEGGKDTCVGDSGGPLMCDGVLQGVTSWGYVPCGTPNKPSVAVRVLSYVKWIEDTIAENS

| SMILES | IC50 (Human PKK) | Ki (human TK1) | IC50 [1] |
| --- | --- | --- | --- |
| Cc1nc(N2CC3CC3C2)c(C#N)cc1Cn1cc(C(=O)N[C@@H]2CCc3c2ncn3C)cn1 (stereo partly drawn) [Example 128, 1-[(6-{3-Azabicyclo[3.1.0]hexan-3-yl}-5-cyano-2-methylpyridin-3-yl)methyl]-N-[(4R)-1-methyl-1H,4H,5H,6H-cyclopenta[d]imidazol-4-yl]-1H-pyrazole-4-carboxamide] | 5.1 nM | > 10000 nM | 1390 nM |
| Cn1cnc2c1CC[C@H]2NC(=O)c1cnn(Cc2ccc(N3CC4CC4C3)nc2)c1 (stereo partly drawn) [Example 131, 1-[(6-{3-Azabicyclo[3.1.0]hexan-3-yl}pyridin-3-yl)methyl]-N-[(4R)-1-methyl-1H,4H,5H,6H-cyclopenta[d]imidazol-4-yl]-1H-pyrazole-4-carboxamide] | 4.3 nM | > 10000 nM | 962 nM |
| Cn1cnc2c1CC[C@H]2NC(=O)c1cn(Cc2ccc(N3CC4CC4C3)nc2)nn1 (stereo partly drawn) [Example 135, 1-[(6-{3-Azabicyclo[3.1.0]hexan-3-yl}pyridin-3-yl)methyl]-N-[(4R)-1-methyl-1H,4H,5H,6H-cyclopenta[d]imidazol-4-yl]-1H-1,2,3-triazole-4-carboxamide] | 4.2 nM | > 10000 nM | 909 nM |
| Cc1nc(N2CC3C(C2)C3(F)F)ncc1Cn1cnc(C(=O)N[C@@H]2CCc3c2ncn3C)c1 (stereo partly drawn) [Example 136, 1-[(2-{6,6-Difluoro-3-azabicyclo[3.1.0]hexan-3-yl}-4-methylpyrimidin-5-yl)methyl]-N-[(4R)-1-methyl-1H,4H,5H,6H-cyclopenta[d]imidazol-4-yl]-1H-imidazole-4-carboxamide] | 2 nM | > 10000 nM | 310 nM |
| Cc1nc(N2CC3CC3C2)ncc1Cn1cc(C(=O)N[C@@H]2CCc3c2ncn3C)nn1 (stereo partly drawn) [Example 137, 1-[(2-{3-Azabicyclo[3.1.0]hexan-3-yl}-4-methylpyrimidin-5-yl)methyl]-N-[(4R)-1-methyl-1H,4H,5H,6H-cyclopenta[d]imidazol-4-yl]-1H-1,2,3-triazole-4-carboxamide] | 4.4 nM | > 10000 nM | 756 nM |
| Cc1nc(N2CC3CC3C2)ncc1Cn1cnc(C(=O)N[C@@H]2CCc3c2ncn3C)c1 (stereo partly drawn) [Example 171, 1-[(2-{3-Azabicyclo[3.1.0]hexan-3-yl}-4-methylpyrimidin-5-yl)methyl]-N-[(4R)-1-methyl-1H,4H,5H,6H-cyclopenta[d]imidazol-4-yl]-1H-imidazole-4-carboxamide] | 2.6 nM | > 10000 nM | 268 nM |
| Cc1nc(N2CC3CC3C2)ccc1Cn1cc(C(=O)N[C@@H]2CCc3c2ncn3C)c2cncnc21 (stereo partly drawn) [Example 173, 7-[(6-{3-Azabicyclo[3.1.0]hexan-3-yl]-2-methylpyridin-3-yl)methyl]-N-[(4R)-1-methyl-1H,4H,5H,6H-cyclopenta[d]imidazol-4-yl]-7H-pyrrolo[2,3-d]pyrimidine-5-carboxamide] | 0.6 nM | > 10000 nM | 729 nM |
| Cc1nc(N2CC3C(C2)C3(F)F)ncc1Cn1cc(C(=O)N[C@@H]2CCc3c2ncn3C)c2cncnc21 (stereo partly drawn) [Example 175, 7-[(2-{6,6-Difluoro-3-azabicyclo[3.1.0]hexan-3-yl}-4-methylpyrimidin-5-yl)methyl]-N-[(4R)-1-methyl-1H,4H,5H,6H-cyclopenta[d]imidazol-4-yl]-7H-pyrrolo[2,3-d]pyrimidine-5-carboxamide] | 2.9 nM | > 10000 nM | 822 nM |
| Cc1nc(N2CC3CC3C2)ncc1Cn1cc(C(=O)N[C@@H]2CCc3c2ncn3C)cn1 (stereo partly drawn) [Example 177, 1-[(2-{3-Azabicyclo[3.1.0]hexan-3-yl}-4-methylpyrimidin-5-yl)methyl]-N-[(4R)-1-methyl-1H,4H,5H,6H-cyclopenta[d]imidazol-4-yl]-1H-pyrazole-4-carboxamide] | 5.5 nM | > 10000 nM | 1180 nM |
| Cc1nc(N2CC3C(C2)C3(F)F)ncc1Cn1cc(C(=O)N[C@@H]2CCc3c2ncn3C)nn1 (stereo partly drawn) [Example 178, 1-[(2-{6,6-Difluoro-3-azabicyclo[3.1.0]hexan-3-yl}-4-methylpyrimidin-5-yl)methyl]-N-[(4R)-1-methyl-1H,4H,5H,6H-cyclopenta[d]imidazol-4-yl]-1H-1,2,3-triazole-4-carboxamide] | 5 nM | > 10000 nM | 844 nM |
| Cc1nc(N2CC3CC3C2)ccc1Cc1ccc(C(=O)N[C@@H]2CCc3c2ncn3C)o1 (stereo partly drawn) [Example 181, 5-[(6-{3-Azabicyclo[3.1.0]hexan-3-yl}-2-methylpyridin-3-yl)methyl]-N-[(4R)-1-methyl-1H,4H,5H,6H-cyclopenta[d]imidazol-4-yl]furan-2-carboxamide] | 10.9 nM | > 10000 nM | 22300 nM |

The next lines start with the values.

| IC50 (Human PKK) | Ki (human TK1) | IC50 [1] | SMILES |
| --- | --- | --- | --- |
| 1.1 nM | > 10000 nM | 2740 nM | Cc1nc(N2CC3CC3C2)ccc1Cn1cc(C(=O)N[C@@H]2CCc3c2ncn3C)c(C(C)(C)O)n1 (stereo partly drawn) [Example 125, 1-[(6-{3-Azabicyclo[3.1.0]hexan-3-yl}-2-methylpyridin-3-yl)methyl]-3-(2-hydroxypropan-2-yl)-N-[(4R)-1-methyl-1H,4H,5H,6H-cyclopenta-[d]imidazol-4-yl]-1H-pyrazole-4-carboxamide] |
| 0.6 nM | > 10000 nM | 681 nM | COCc1nn(Cc2ccc(N3CC4C(C3)C4(F)F)nc2C)cc1C(=O)N[C@@H]1CCc2c1ncn2C (stereo partly drawn) [Example 126, 1-[(6-{6,6-Difluoro-3-azabicyclo[3.1.0]hexan-3-yl}-2-methylpyridin-3-yl)methyl]-3-(methoxymethyl)-N-[(4R)-1-methyl-1H,4H,5H,6H-cyclopenta[d]imidazol-4-yl]-1H-pyrazole-4-carboxamide] |
| 1.2 nM | > 10000 nM | 1680 nM | Cn1cnc2c1CC[C@H]2NC(=O)c1cnn(Cc2ccc(N3CC4CC4C3)nc2Cl)c1 (stereo partly drawn) [Example 127, 1-[(6-{3-Azabicyclo[3.1.0]hexan-3-yl}-2-chloropyridin-3-yl)methyl]-N-[(4R)-1-methyl-1H,4H,5H,6H-cyclopenta[d]imidazol-4-yl]-1H-pyrazole-4-carboxamide] |
| 1.6 nM | > 10000 nM | 560 nM | Cc1nc(N2CC3CC3C2)ccc1Cn1cc(C(=O)N[C@@H]2CCc3c2ncn3C)cn1 (stereo partly drawn) [Example 133, 1-[(6-{3-Azabicyclo[3.1.0]hexan-3-yl}-2-methylpyridin-3-yl)methyl]-N-[(4R)-1-methyl-1H,4H,5H,6H-cyclopenta[d]imidazol-4-yl]-1H-pyrazole-4-carboxamide] |
| 1.7 nM | > 10000 nM | 1030 nM | Cn1cnc2c1CC[C@H]2NC(=O)c1cnn(Cc2ccc(N3CC4CC4C3)nc2C(F)(F)F)c1 (stereo partly drawn) [Example 134, 1-[(6-{3-Azabicyclo[3.1.0]hexan-3-yl}-2-(trifluoromethyl)pyridin-3-yl)methyl]-N-[(4R)-1-methyl-1H,4H,5H,6H-cyclopenta[d]imidazol-4-yl]-1H-pyrazole-4-carboxamide] |
| 0.6 nM | > 10000 nM | 485 nM | Cc1nc(N2CC3(CC3)C2)ccc1Cn1cc(C(=O)N[C@@H]2CCc3c2ncn3C)cn1 [Example 169, 1-[(6-{5-Azaspiro[2.3]hexan-5-yl}-2-methylpyridin-3-yl)methyl]-N-[(4R)-1-methyl-1H,4H,5H,6H-cyclopenta[d]imidazol-4-yl]-1H-pyrazole-4-carboxamide] |
| 0.8 nM | > 10000 nM | 469 nM | Cc1nc(N2CC3(CC3)C2)ccc1Cn1cnc(C(=O)N[C@@H]2CCc3c2ncn3C)c1 [Example 170, 1-[(6-{5-Azaspiro[2.3]hexan-5-yl}-2-methylpyridin-3-yl)methyl]-N-[(4R)-1-methyl-1H,4H,5H,6H-cyclopenta[d]imidazol-4-yl]-1H-imidazole-4-carboxamide] |
| 1.5 nM | > 10000 nM | 1080 nM | Cn1cnc2c1CC[C@H]2NC(=O)c1cnn(Cc2ccc(N3CC4CC4C3)c(C#N)c2)c1 (stereo partly drawn) [Example 190, 1-[(4-{3-Azabicyclo[3.1.0]hexan-3-yl}-3-cyanophenyl)methyl]-N-[(4R)-1-methyl-1H,4H,5H,6H-cyclopenta[d]imidazol-4-yl]-1H-pyrazole-4-carboxamide] |

— patent US12479827B2, “Heteroaromatic carboxamide derivatives as plasma kallikrein inhibitors” (Boehringer Ingelheim International GmbH, priority 2020, dated 2025)
